Consider 14 compounds from ChEMBL document CHEMBL4665914, “Identification of BRaf-Sparing Amino-Thienopyrimidines with Potent IRE1α Inhibitory Activity” (ACS Med Chem Lett, 2020).

Data set [1] concerns the target T1, Serine/threonine-protein kinase/endoribonuclease IRE1 (Homo sapiens, UniProt O75460). In words: Competitive inhibition of IRE1alpha LKR domain (Q470 to L997 residues) (unknown origin) expressed in Sf9 insect cells using mini-XBP-1 stem-loop RNA as substrate and measured every 2 mins for 50 mins by FRET assay.
The target in data set [2] is T1, Serine/threonine-protein kinase/endoribonuclease IRE1. The data set can be described thus: Inhibition of IRE1alpha (unknown origin) assessed as XBP-1 slicing luciferase activity incubated for 1 hr followed by stimulation with thapsigargin measured after 5 hrs by luciferase reporter gene assay. In general terms: In a reporter assay the amount or activity of a reporter protein is the signal.

The target of data set [3] is Serine/threonine-protein kinase B-raf (Homo sapiens, UniProt P15056, V600E).
Chain of Serine/threonine-protein kinase B-raf (P15056 2-766 V600E limits assumed): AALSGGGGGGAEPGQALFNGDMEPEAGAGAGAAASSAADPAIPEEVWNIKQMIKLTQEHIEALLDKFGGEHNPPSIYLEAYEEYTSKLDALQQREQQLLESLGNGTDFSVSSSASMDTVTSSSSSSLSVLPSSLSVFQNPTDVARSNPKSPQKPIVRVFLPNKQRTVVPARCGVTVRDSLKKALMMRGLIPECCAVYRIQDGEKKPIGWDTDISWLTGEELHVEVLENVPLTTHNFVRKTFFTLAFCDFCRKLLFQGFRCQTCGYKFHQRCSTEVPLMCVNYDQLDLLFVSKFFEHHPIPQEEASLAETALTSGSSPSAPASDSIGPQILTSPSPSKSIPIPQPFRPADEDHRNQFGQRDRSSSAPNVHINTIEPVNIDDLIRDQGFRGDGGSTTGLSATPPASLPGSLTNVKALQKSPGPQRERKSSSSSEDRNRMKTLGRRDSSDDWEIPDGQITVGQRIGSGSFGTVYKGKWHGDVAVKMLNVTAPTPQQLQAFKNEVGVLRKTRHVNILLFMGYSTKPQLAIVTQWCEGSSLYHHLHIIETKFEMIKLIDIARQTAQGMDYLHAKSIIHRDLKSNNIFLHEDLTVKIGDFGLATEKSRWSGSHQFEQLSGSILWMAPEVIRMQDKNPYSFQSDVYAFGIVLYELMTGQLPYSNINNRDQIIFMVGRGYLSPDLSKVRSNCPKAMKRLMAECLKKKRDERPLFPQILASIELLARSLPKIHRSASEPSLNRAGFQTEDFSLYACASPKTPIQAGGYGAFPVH
For data set [4], the target named is T2, hERG (KCNH2) (Homo sapiens, UniProt Q12809). In words: Inhibition of human ERG at 1 uM relative to control.
T2 sequence (Q12809 whole entry): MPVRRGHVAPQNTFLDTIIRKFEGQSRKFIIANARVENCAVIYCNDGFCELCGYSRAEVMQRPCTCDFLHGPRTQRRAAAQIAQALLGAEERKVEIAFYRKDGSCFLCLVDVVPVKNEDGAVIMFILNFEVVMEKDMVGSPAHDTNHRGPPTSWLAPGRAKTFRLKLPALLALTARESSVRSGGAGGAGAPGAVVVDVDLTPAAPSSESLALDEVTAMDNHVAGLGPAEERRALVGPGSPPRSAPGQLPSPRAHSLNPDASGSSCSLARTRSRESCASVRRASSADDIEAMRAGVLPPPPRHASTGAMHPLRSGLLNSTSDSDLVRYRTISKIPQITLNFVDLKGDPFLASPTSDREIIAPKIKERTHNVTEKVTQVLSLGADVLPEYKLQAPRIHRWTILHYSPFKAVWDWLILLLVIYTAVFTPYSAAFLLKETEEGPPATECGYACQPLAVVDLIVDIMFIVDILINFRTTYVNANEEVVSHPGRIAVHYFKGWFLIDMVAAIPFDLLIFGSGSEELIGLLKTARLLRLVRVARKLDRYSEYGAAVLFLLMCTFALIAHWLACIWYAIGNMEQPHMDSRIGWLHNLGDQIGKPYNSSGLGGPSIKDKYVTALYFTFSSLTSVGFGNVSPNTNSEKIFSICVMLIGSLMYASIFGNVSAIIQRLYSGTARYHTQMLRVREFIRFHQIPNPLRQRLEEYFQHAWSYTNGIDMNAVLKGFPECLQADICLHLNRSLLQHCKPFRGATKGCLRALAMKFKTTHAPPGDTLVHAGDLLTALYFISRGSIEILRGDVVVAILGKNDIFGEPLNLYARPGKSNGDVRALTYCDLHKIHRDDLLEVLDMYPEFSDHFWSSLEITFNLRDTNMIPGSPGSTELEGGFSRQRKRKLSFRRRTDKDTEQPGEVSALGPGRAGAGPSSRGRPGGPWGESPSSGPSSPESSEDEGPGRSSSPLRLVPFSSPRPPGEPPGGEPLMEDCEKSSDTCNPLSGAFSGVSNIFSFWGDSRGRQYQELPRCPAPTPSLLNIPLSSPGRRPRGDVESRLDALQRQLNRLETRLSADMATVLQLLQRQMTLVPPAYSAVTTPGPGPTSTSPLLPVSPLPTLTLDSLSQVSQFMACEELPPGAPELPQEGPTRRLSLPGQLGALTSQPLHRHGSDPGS
In data set [5] the target is T2, hERG (KCNH2). The data set can be described thus: Inhibition of human ERG at 10 uM relative to control.

T1 sequence (O75460 whole entry, the tested form may be a part): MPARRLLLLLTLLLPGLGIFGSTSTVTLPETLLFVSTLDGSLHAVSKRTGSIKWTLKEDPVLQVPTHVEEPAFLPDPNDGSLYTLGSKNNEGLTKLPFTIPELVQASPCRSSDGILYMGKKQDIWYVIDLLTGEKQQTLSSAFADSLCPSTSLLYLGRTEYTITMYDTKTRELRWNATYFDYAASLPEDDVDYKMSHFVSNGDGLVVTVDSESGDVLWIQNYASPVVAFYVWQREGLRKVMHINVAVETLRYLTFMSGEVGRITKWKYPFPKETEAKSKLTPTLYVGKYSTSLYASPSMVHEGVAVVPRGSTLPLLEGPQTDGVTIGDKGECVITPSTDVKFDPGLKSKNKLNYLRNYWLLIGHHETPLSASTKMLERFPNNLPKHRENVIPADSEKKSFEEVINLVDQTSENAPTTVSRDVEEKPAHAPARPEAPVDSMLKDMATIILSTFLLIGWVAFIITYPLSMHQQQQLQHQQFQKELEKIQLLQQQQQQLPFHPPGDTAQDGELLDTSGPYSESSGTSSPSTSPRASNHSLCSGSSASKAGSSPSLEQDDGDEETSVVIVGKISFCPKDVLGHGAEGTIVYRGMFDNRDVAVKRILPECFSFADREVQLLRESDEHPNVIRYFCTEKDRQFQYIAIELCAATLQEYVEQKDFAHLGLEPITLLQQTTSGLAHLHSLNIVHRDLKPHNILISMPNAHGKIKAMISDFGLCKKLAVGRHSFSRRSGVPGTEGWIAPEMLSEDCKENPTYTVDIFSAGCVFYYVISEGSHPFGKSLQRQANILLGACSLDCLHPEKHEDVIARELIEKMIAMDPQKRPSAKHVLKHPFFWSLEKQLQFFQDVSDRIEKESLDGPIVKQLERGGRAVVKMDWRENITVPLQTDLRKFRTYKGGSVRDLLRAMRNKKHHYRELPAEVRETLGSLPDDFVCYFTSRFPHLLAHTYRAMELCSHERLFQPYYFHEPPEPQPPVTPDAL

`Cc1cc(NS(=O)(=O)c2ccccc2Cl)c2ccccc2c1Oc1ncccc1-c1ccnc(N[C@H]2CC[C@H](N)CC2)n1`: the IC50 (usually the midpoint of a concentration-inhibition curve) in data set [1] is 4.2 nM; in data set [2], 57 nM.
In the case of `Cc1cc(C(=O)Nc2c(Cl)ccc(NS(=O)(=O)c3cc(F)ccc3F)c2F)c2ncnc(NCCN)c2c1`, the values for the IC50 in data set [1] and in data set [2] were 920 nM and 31000 nM, respectively. For the same compound, the affinity in data set [3] corresponds to a Ki of 5.2 nM.
The corresponding values for `Nc1ncnc2c(C(=O)Nc3c(Cl)ccc(NS(=O)(=O)c4cc(F)ccc4F)c3F)csc12` are 67 nM, 5300 nM and not above 0.08 nM.
In the case of `Cc1cc(C(=O)Nc2c(Cl)ccc(NS(=O)(=O)c3cc(F)ccc3F)c2F)c2ncnc(N[C@@H]3CCCNC3)c2c1`, the IC50 was 3500 nM in data set [1] and 19000 nM in data set [2]. Moreover, the affinity in data set [3], expressed as Ki, was 70 nM.
Taken in the same sequence, the figures for `Cc1nn(C)cc1-c1cc(C(=O)Nc2c(Cl)ccc(NS(=O)(=O)c3ccccc3F)c2F)c2ncnc(N)c2c1` were 40 nM, 44 nM and not above 0.08 nM.
Taken in the same sequence, the figures for `Cc1cc(C(=O)Nc2c(Cl)ccc(NS(=O)(=O)c3cc(F)ccc3F)c2F)c2ncnc(N[C@H]3CC[C@H](N)CC3)c2c1` were 700 nM, 19000 nM and 340 nM.
Consider `Nc1ncnc2c(C(=O)Nc3c(Cl)ccc(NS(=O)(=O)c4cc(F)ccc4F)c3F)cc(-c3cccnc3)cc12`, for which the IC50 in data set [1] is 47 nM; in data set [2] it was 4900 nM. The Ki (commonly the equilibrium dissociation constant of an inhibitor or competing ligand from its target) in data set [3] was not above 0.08 nM.
As to `Cc1cc(C(=O)Nc2c(Cl)ccc(NS(=O)(=O)c3cc(F)ccc3F)c2F)c2ncnc(N)c2c1`, the IC50 in data set [1] worked out at 31 nM; in data set [2], 1100 nM. Further, the Ki in data set [3] is not above 0.08 nM.
The corresponding values for `Cc1nn(C)cc1-c1cc(C(=O)Nc2c(Cl)ccc(NS(=O)(=O)c3ccccc3Cl)c2F)c2ncnc(N)c2c1` are 64 nM, 48 nM and 0.25 nM.
Turning to `Cc1cc(C(=O)Nc2c(Cl)ccc(NS(=O)(=O)c3cc(F)ccc3F)c2F)c2ncnc(N[C@H]3CCCNC3)c2c1`, the IC50 is 670 nM in data set [1] and 9900 nM in data set [2].
For the compound `N[C@H]1CC[C@H](Nc2ncnc3c(C(=O)Nc4c(Cl)ccc(NS(=O)(=O)Cc5ccccc5)c4F)csc23)CC1`, the IC50 was 30 nM in data set [1] and 390 nM in data set [2]. For the same compound, in data set [3], the affinity corresponds to a Ki of 55 nM.
For the compound `Nc1ncnc2c(C(=O)Nc3c(Cl)ccc(NS(=O)(=O)N4CCCC4)c3F)cccc12`, the results for the IC50 in data set [1] and in data set [2] were 200 nM and 5580 nM, respectively. Also, the affinity in data set [3] corresponds to a Ki of 2.3 nM.
As to `N[C@H]1CC[C@H](Nc2ncnc3c(C(=O)Nc4c(Cl)ccc(NS(=O)(=O)c5ccccc5Cl)c4F)csc23)CC1`, the IC50 worked out at 22 nM in data set [1] and 120 nM in data set [2]. Besides, the inhibition (as a rule, how much of the control response was suppressed) at 1 µM against hERG (KCNH2) [4] is 1.1%. On hERG (KCNH2) [5], this compound yielded an inhibition at 10 µM of 6.4%.
With `N[C@H]1CC[C@H](Nc2ncnc3c(C(=O)Nc4c(Cl)ccc(NS(=O)(=O)c5cc(F)ccc5F)c4F)csc23)CC1`, the IC50 amounted to 24 nM in data set [1] and 320 nM in data set [2]. The compound further showed a Ki in data set [3] of 1.4 nM.
